These results are taken from PubChem BioAssay (NCI).

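The compound was tested at five concentrations on cells cultured in 96-well plates, with a 48-hour exposure period. TGI: concentration producing complete growth inhibition.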 Some results are limits rather than exact numbers.

Among the test systems are A498 renal; COLO 205 colon; NCI-H522 lung; SF-295 CNS; SK-MEL-28 melanoma; SK-MEL-5 melanoma; U251 CNS; DLD-1 colon; KM20L2 colon; M19-MEL melanoma; SNB-78 CNS; DMS 273 small cell lung.
Experiment in all cases: NCI tumour cell line growth inhibition, 48 h

Take `COc1cc(Cn2c3c(c4cc(O)ccc42)C(=O)c2ccccc2C3=O)cc(OC)c1`: the TGI was determined as 38.6 µM in the experiment with A498 renal; 34.7 µM with COLO 205 colon; 12.5 µM with NCI-H522 lung; 23.6 µM in the experiment on SF-295 CNS; 28.4 µM with SK-MEL-28 melanoma; 18.7 µM with SK-MEL-5 melanoma. The compound further had a TGI with U251 CNS of 18.6 µM.
On to `Cn1ncc2c(NCCc3ccccc3)nc(Cl)nc21`, for which the TGI with A498 renal was 45.5 µM; with COLO 205 colon, 34.2 µM; in the experiment with NCI-H522 lung, > 100 µM; in the experiment with SF-295 CNS, 67.7 µM; with SK-MEL-28 melanoma, 76.4 µM; with SK-MEL-5 melanoma, 38.6 µM. In addition, the TGI in the experiment with U251 CNS is > 100 µM.
Turning to `CC1=NN(C(=O)c2ccc(Cl)cc2)C(=O)/C1=C/c1cccc(O)c1`, the TGI in the experiment on A498 renal, in the experiment with COLO 205 colon, in the experiment with DLD-1 colon, in the experiment on KM20L2 colon, in the experiment with M19-MEL melanoma and in the experiment on NCI-H522 lung was > 100 µM throughout. Also, the TGI in the experiment with SF-295 CNS, in the experiment with SK-MEL-28 melanoma, in the experiment with SK-MEL-5 melanoma, in the experiment on SNB-78 CNS and in the experiment with U251 CNS was > 100 µM in each case.
As to `CC(C)(C)SC1=CCC[C@@H](P(=O)(c2ccccc2)c2ccccc2)[C@@H]2CCC[C@@H]12`, the TGI was 29.4 µM with A498 renal; 34.1 µM in the experiment with COLO 205 colon; 31.3 µM in the experiment on NCI-H522 lung; 29 µM with SF-295 CNS; 54.6 µM in the experiment on SK-MEL-28 melanoma; 32.8 µM in the experiment on SK-MEL-5 melanoma. For the same compound, the TGI with U251 CNS stood at 33.3 µM.
On to `Cc1cc2c3c(ccc4ncc(c43)CN2c2ccc(NS(C)(=O)=O)cc2)[nH]1`, for which the TGI with A498 renal, in the experiment on COLO 205 colon, in the experiment on NCI-H522 lung, with SF-295 CNS, in the experiment on SK-MEL-28 melanoma and in the experiment with SK-MEL-5 melanoma was > 100 µM throughout. For the same compound, in the experiment on U251 CNS, the TGI is > 100 µM.
On to `O=C1c2c(Br)sc(Br)c2[C@H]2NC(=S)O[C@@H]12`, for which the TGI worked out at 47.2 µM in the experiment with A498 renal; 27.8 µM with COLO 205 colon; 3.74 µM in the experiment on NCI-H522 lung; 45.5 µM in the experiment on SF-295 CNS; 29.6 µM in the experiment on SK-MEL-28 melanoma; 29.7 µM in the experiment with SK-MEL-5 melanoma. The compound also had a TGI in the experiment on U251 CNS of 26.7 µM.
`c1ccc2cc3n[se]nc3cc2c1`: the TGI with COLO 205 colon, in the experiment with DLD-1 colon, in the experiment on DMS 273 small cell lung, in the experiment with KM20L2 colon, in the experiment on NCI-H522 lung and in the experiment on SF-295 CNS was > 100 µM throughout. Further, the TGI in the experiment on SK-MEL-28 melanoma, in the experiment on SK-MEL-5 melanoma, in the experiment with SNB-78 CNS and in the experiment on U251 CNS was > 100 µM each time.
Regarding `CC(C)(C)OC(=O)C(C1NC(C(=O)O)C(C)(C)S1)N1C(=O)c2ccccc2C1=O` (centres undefined), the TGI in the experiment with A498 renal, in the experiment on COLO 205 colon, with NCI-H522 lung, with SF-295 CNS, with SK-MEL-28 melanoma and in the experiment on SK-MEL-5 melanoma was > 100 µM throughout. The TGI with U251 CNS is > 100 µM.
For the compound `CC(=O)CN=C(C)NNc1ccc([N+](=O)[O-])cc1[N+](=O)[O-]`, the TGI with A498 renal, in the experiment on COLO 205 colon, with NCI-H522 lung, in the experiment on SF-295 CNS, in the experiment on SK-MEL-28 melanoma and in the experiment with SK-MEL-5 melanoma was > 100 µM in each case. Besides, the TGI in the experiment with U251 CNS was > 100 µM.
`Nc1nc(Cl)cc(Nc2ccc3c(c2)CCC3)n1`: the TGI in the experiment with A498 renal, in the experiment on COLO 205 colon, in the experiment with NCI-H522 lung, in the experiment on SF-295 CNS, with SK-MEL-28 melanoma and in the experiment with SK-MEL-5 melanoma was > 100 µM throughout. In the experiment on U251 CNS, the TGI was > 100 µM.
For `O=C(O)/C(=C\c1ccccc1)Cc1ccccc1`, the TGI in the experiment with A498 renal, with COLO 205 colon, in the experiment with NCI-H522 lung, in the experiment on SF-295 CNS, in the experiment with SK-MEL-28 melanoma and in the experiment on SK-MEL-5 melanoma was > 100 µM each time. For the same compound, the TGI in the experiment with U251 CNS is > 100 µM.
As to `CN1c2ccccc2C2c3c(O)ccc(O)c3C=C([N+](=O)[O-])C21` (centres undefined), the TGI was determined as 5.47 µM with A498 renal; 8.55 µM in the experiment with COLO 205 colon; 0.17 µM with NCI-H522 lung; 8.29 µM in the experiment with SF-295 CNS; 11.3 µM in the experiment on SK-MEL-28 melanoma; 1.89 µM in the experiment on SK-MEL-5 melanoma. For the same compound, the TGI in the experiment with U251 CNS is 4.84 µM.
In the case of `O=S(=O)(Nc1ccccc1S(=O)(=O)c1ccccc1)c1ccccc1`, the TGI in the experiment on A498 renal, in the experiment with COLO 205 colon, in the experiment with NCI-H522 lung, with SF-295 CNS, in the experiment on SK-MEL-28 melanoma and in the experiment on SK-MEL-5 melanoma was > 100 µM in each case. In addition, the TGI with U251 CNS was > 100 µM.
Turning to `COc1cc(CNC(=O)CCCCCCCC/C=C/Br)ccc1O`, the TGI with A498 renal, in the experiment with COLO 205 colon, with NCI-H522 lung, with SF-295 CNS, with SK-MEL-28 melanoma and in the experiment on SK-MEL-5 melanoma was > 10 µM each time. Further, the TGI in the experiment with U251 CNS was > 10 µM.
On to `COc1cc(OC)c(/C=N/N=C(\N)NO)c(OC)c1`, for which the TGI in the experiment on A498 renal, with COLO 205 colon, in the experiment on NCI-H522 lung, with SF-295 CNS, in the experiment with SK-MEL-28 melanoma and in the experiment on SK-MEL-5 melanoma was > 100 µM throughout. Also, the TGI with U251 CNS was > 100 µM.
As to `CC1C(c2ccccc2O)c2cc3c(cc2OC1N1CCCC1)OCO3` (centres undefined), the TGI was 60.7 µM with A498 renal; 55.5 µM in the experiment on COLO 205 colon; 70.3 µM in the experiment on NCI-H522 lung; 74.9 µM in the experiment with SF-295 CNS; 46.6 µM in the experiment on SK-MEL-28 melanoma; > 100 µM with SK-MEL-5 melanoma. The TGI in the experiment with U251 CNS was > 100 µM.
